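Grown in 96-well plates, cells were treated for 48 hours with each compound at five concentrations. Insufficient inhibition: endpoint recorded as highest concentration tested. GI50 marks 50% less growth. TGI: concentration producing complete growth inhibition.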
How the values were obtained:
Experiment in all cases: DTP human tumour cell line panel, 48 h
ACHN renal = test system: ACHN renal
DU-145 prostate = test system: DU-145 prostate
HL-60(TB) leukemia = test system: HL-60(TB) leukemia
M14 melanoma = test system: M14 melanoma
MDA-MB-231 breast = test system: MDA-MB-231 breast
SNB-19 CNS = test system: SNB-19 CNS
T-47D breast = test system: T-47D breast
UACC-62 melanoma = test system: UACC-62 melanoma

SMILES | GI50 (ACHN renal) | TGI (ACHN renal) | GI50 (DU-145 prostate) | TGI (DU-145 prostate) | GI50 (HL-60(TB) leukemia) | TGI (HL-60(TB) leukemia) | GI50 (M14 melanoma) | TGI (M14 melanoma) | GI50 (MDA-MB-231 breast) | TGI (MDA-MB-231 breast) | GI50 (SNB-19 CNS) | TGI (SNB-19 CNS) | GI50 (T-47D breast) | TGI (T-47D breast) | GI50 (UACC-62 melanoma) | TGI (UACC-62 melanoma)
C(=C\c1ccc(OCC2CO2)cc1)/C1=NCOC1 (centres undefined) | 5.47 µM | 19.5 µM | 9.82 µM | 29.2 µM | 2.35 µM | 9.16 µM | 14.5 µM | 88.5 µM | 14.7 µM | 30.7 µM | 4.73 µM | 29.2 µM | 3.57 µM | 18.6 µM | 12.2 µM | 26.5 µM
O=c1[nH]c2ccccc2n1C1CCN(CCOc2ccccc2)CC1 | 40.4 µM | > 100 µM | 15.8 µM | > 100 µM | 12.9 µM | > 100 µM | 25.4 µM | > 100 µM | 27 µM | > 100 µM | 47.8 µM | > 100 µM | 15.7 µM | > 100 µM | 50.5 µM | > 100 µM
CN(C)C/C=C/C(=O)Nc1cc2c(Nc3cccc(Cl)c3F)ncnc2cc1OCCOC(F)F | < 0.01 µM | 10.7 µM | 0.317 µM | 10.7 µM | 1.71 µM | 7.23 µM | 3.08 µM | 14.3 µM | 1.09 µM | 7.78 µM | 1.97 µM | 13.3 µM | 0.0376 µM | 1.11 µM | 1.86 µM | 11.1 µM
CCOC(=O)c1ccc(NC(=O)c2cccc(NC3=C(Cl)C(=O)N(Cc4ccccc4)C3=O)c2)cc1 | > 100 µM | > 100 µM | > 100 µM | > 100 µM | 17.2 µM | 45.9 µM | > 100 µM | > 100 µM | 92 µM | > 100 µM | > 100 µM | > 100 µM | > 100 µM | > 100 µM | > 100 µM | > 100 µM
